Laboratory results reported in patent US11655260B2, “Heterocyclic compounds as arginase inhibitors” (Guangdong Newopp Biopharmaceuticals Co., Ltd., priority 2017, dated 2023).
Where a name gives a salt, the structure may show the parent alone.

Target: T1, recombinant human arginase 1 (Homo sapiens, UniProt P05089)
T1 sequence (P05089 1-322): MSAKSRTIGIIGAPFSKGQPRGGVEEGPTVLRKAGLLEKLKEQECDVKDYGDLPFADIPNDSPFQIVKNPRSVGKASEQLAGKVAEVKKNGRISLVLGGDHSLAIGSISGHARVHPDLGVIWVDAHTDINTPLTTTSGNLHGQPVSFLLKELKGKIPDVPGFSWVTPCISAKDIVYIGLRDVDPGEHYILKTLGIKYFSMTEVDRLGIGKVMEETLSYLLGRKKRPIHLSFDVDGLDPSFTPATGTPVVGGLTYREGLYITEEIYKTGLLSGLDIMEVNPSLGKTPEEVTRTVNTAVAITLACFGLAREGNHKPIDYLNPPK
Assay: Arginase inhibitory activity test (urea detection), arginase 1
Format: biochemical
Conditions: recombinant human arginase 1, L-arginine substrate, 37° C. for 120 min, urea measurement; read-out: Arg 1 enzymatic potency
From the text: Arginase Inhibitory Activity Test
Urea was used as the standard.

Structure (SMILES)	IC50
CNS(=O)(=O)N1C[C@H](CCCB(O)O)[C@](N)(C(=O)O)C1 (racemic) [Example 2, (rac)trans-3-amino-4-(3-boronopropyl)-1-(N-methylsulfamoyl)pyrrolidine-3-carboxylic acid, (1:1) 2,2,2-trifluoroacetic Acid Salt]	1000 to 101000 nM
NC(=O)CNS(=O)(=O)N1C[C@H](CCCB(O)O)[C@](N)(C(=O)O)C1 (racemic) [Example 7, (rac)trans-3-amino-1-(N-(2-amino-2-oxoethyl)sulfamoyl)-4-(3-boronopropyl)pyrrolidine-3-carboxylic Acid, (1:1) 2,2,2-trifluoroacetic Acid Salt]	1000 to 101000 nM
CC(C)C(NS(=O)(=O)N1CC(CCCB(O)O)C(N)(C(=O)O)C1)C(=O)O (racemic) [Example 11, (rac)trans-3-amino-4-(3-boronopropyl)-1-(N—((S)-1-carboxy-2-methylpropyl)sulfamoyl)pyrrolidine-3-carboxylic Acid (Diastereomer), (1:1) 2,2,2-trifluoroacetic Acid Salt]	1000 to 101000 nM
CCOC(=O)[C@]1(N)CN(S(=O)(=O)NCCN)C[C@@H]1CCCB(O)O (racemic) [Example 14, (rac)(3-(trans-4-amino-1-(N-(2-aminoethyl)sulfamoyl)-4-(ethoxycarbonyl)pyrrolidin-3-yl)propyl)boronic Acid, (1:2) 2,2,2-trifluoroacetic Acid Salt]	100 to 1000 nM
C[C@H](N)CNS(=O)(=O)N1C[C@H](CCCB(O)O)[C@](N)(C(=O)O)C1 (racemic) [Example 18, (rac)trans-3-amino-1-(N—((S)-2-aminopropyl)sulfamoyl)-4-(3-boronopropyl)pyrrolidine-3-carboxylic Acid (Diastereomers), 2,2,2-trifluoroacetic Acid Salt (1:2)]	100 to 1000 nM
N[C@@H]1CCCCC1NS(=O)(=O)N1C[C@H](CCCB(O)O)[C@](N)(C(=O)O)C1 (mixture of isomers) [Example 20, (rac)trans-3-amino-1-(N-((rac)cis-2-aminocyclohexyl)sulfamoyl)-4-(3-boronopropyl)pyrrolidine-3-carboxylic Acid (Diastereomers), 2,2,2-trifluoroacetic Acid Salt (1:2)]	> 101000 nM
